According to US12697330B2, “Therapeutic methods using vadadustat” (Akebia Therapeutics, Inc., priority 2021, dated 2026):

System: hemoglobin (Hb)
Test: Phase 2 study in hemodialysis subjects converting from epoetin alfa, Main Study: efficacy (hemoglobin)
Format: in vivo, human
Conditions: for Change in Hb from Primary Evaluation Period to Secondary Evaluation Period, Mean (SD) / Change in Hb from Primary Evaluation Period to Secondary Evaluation Period, Median / Hb at Primary Evaluation Period (Average of Weeks 10 to 12), Mean (SD) / Hb at Primary Evaluation Period (Average of Weeks 10 to 12), Median / Hb at Secondary Evaluation Period (Average of Weeks 18 to 20), Mean (SD) / Hb at Secondary Evaluation Period (Average of Weeks 18 to 20), Median: completed 12 weeks of treatment
Description: The primary objective was to assess the efficacy and safety of daily dosing of vadadustat compared to epoetin alfa for 12 weeks in hemodialysis subjects. Additional objectives included to assess the efficacy and safety of three times weekly (TIW) dosing of vadadustat in selected hemodialysis subjects who have been successfully managed with daily dosing of vadadustat through Week 12, to evaluate the PK/PD of daily and TIW dosing of vadadustat in hemodialysis subjects compared to epoetin alfa, and to assess the efficacy and safety of several dosing strategies of vadadustat compared to epoetin alfa during a 20-week Treatment Period in hemodialysis subjects.
The Main study population consisted of adult subjects receiving chronic, outpatient in-center hemodialysis three times weekly (TIW), with 2 screening hemoglobin (Hb) values between 8.5 and 11.0 g/dL (inclusive) and on maintenance treatment with epoetin alfa <300 U/kg/week.
Efficacy Endpoints. The primary endpoint was the mean change in Hb between Baseline (average pretreatment Hb) and the primary evaluation period (average Hb from Weeks 10 to 12). Secondary endpoints included proportion of subjects with Hb values within the target range (10.0 to 11.0 g/dL, inclusive) at the primary evaluation period (Weeks 10-12) and for subjects who transitioned to TIW vadadustat dosing, mean change in Hb from primary evaluation period (average Hb from Weeks 10-12) to the secondary period (average Hb from Weeks 18-20). Other secondary endpoints included mean change in Hb from Baseline (average pretreatment Hb) and the secondary evaluation period (average Hb from Weeks 18-20), proportion of subjects with Hb values within the target range (10.0 to 11.0 g/dL, inclusive) at the secondary evaluation period (Weeks 18 to 20), for subjects who transitioned to TIW vadadustat dosing, proportion of subjects with Hb values within the target range (10.0 to 11.0 g/dL, inclusive) at the secondary evaluation period (Weeks 18-20), proportion of subjects with a mean increase in Hb from Baseline to the primary evaluation period ≥0.5 g/dL (average Hb from Weeks 10-12) or with Hb values within the target range (10.0 to 11.0 g/dL, inclusive) at the primary evaluation period (Weeks 10-12), proportion of subject with a mean increase in Hb from Baseline to the secondary evaluation period ≥0.5 g/dL (average Hb from Weeks 18-20) or with Hb values within the target range (10.0 to 11.0 g/dL, inclusive) at the secondary evaluation period (Weeks 18-20), intravenous (IV) iron supplementation, ESA rescue, and RBC transfusion.
Study Design. This was a Phase 2, randomized, open-label study to evaluate vadadustat for the treatment of anemia in hemodialysis subjects converting from epoetin alfa therapy. For all subjects (Main study and ESA hyporesponder parallel study), the study included a Screening Period, a study Treatment Period, and a Safety Follow-Up Period as described below. PK and PD sampling were done throughout the study. The aim was to achieve and maintain Hb levels within the target range of 10.0 to 11.0 g/dL, inclusive, while targeting the middle of the range and minimizing excursions outside the target range.
Randomization. Subjects were randomized to either a vadadustat treatment arm or epoetin alfa treatment arm. Randomization was stratified by mean weekly epoetin alfa dose calculated over a period of 8 weeks prior to SV2: low epoetin alfa dose group (≤90 U/kg/week) or high epoetin alfa dose group (>90 to <300 U/kg/week). In the low epoetin alfa dose group, subjects were randomized in a 3:3:2 ratio to receive either an initial vadadustat daily dose of 450 mg (3 tablets) or 300 mg (2 tablets), or epoetin alfa. In the high epoetin alfa dose group, subjects were randomized in a 3:3:3:2 ratio to receive either an initial vadadustat daily dose of 600 mg (4 tablets), 450 mg (3 tablets) or 300 mg (2 tablets), or epoetin alfa.
Study Treatment Period (Baseline/Day 1 to Week 20). […]

[1] = Vadadustat, subjects did not switch
[2] = Vadadustat, subjects switched from QD to TIW
[3] = whole treatment group, Main Study

O=C(O)CNC(=O)c1ncc(-c2cccc(Cl)c2)cc1O [vadadustat, {[5-(3-chlorophenyl)-3-hydroxypyridine-2-carbonyl]amino}acetic acid]
Mean change from baseline in Hb over time, versus comparator (Randomized population, FIG. 13 and FIG. 14): lower than the epoetin alfa treatment group throughout
Change in Hb from Primary Evaluation Period to Secondary Evaluation Period, Mean (SD) (Vadadustat Total, Overall): −0.064 (1.2236) g/dL
Change in Hb from Primary Evaluation Period to Secondary Evaluation Period, Median (Vadadustat Total, Overall): -0.033 g/dL
Hb at Primary Evaluation Period (Average of Weeks 10 to 12), Mean (SD) (Vadadustat Total, Overall): 9.809 (1.1548) g/dL
Hb at Primary Evaluation Period (Average of Weeks 10 to 12), Median (Vadadustat Total, Overall): 9.900 g/dL
Hb at Secondary Evaluation Period (Average of Weeks 18 to 20), Mean (SD) (Vadadustat Total, Overall): 9.876 (0.8867) g/dL
Hb at Secondary Evaluation Period (Average of Weeks 18 to 20), Median (Vadadustat Total, Overall): 9.800 g/dL
Change in Hb from Primary Evaluation Period to Secondary Evaluation Period, Mean (SD) [1]: 0.039 g/dL
Change in Hb from Primary Evaluation Period to Secondary Evaluation Period, Median [1]: 0.067 g/dL
Hb at Primary Evaluation Period (Average of Weeks 10 to 12), Mean (SD) [1]: 9.694 (1.2248) g/dL
Hb at Primary Evaluation Period (Average of Weeks 10 to 12), Median [1]: 9.483 g/dL
Hb at Secondary Evaluation Period (Average of Weeks 18 to 20), Mean (SD) [1]: 9.854 (0.8378) g/dL
Hb at Secondary Evaluation Period (Average of Weeks 18 to 20), Median [1]: 9.800 g/dL
Change in Hb from Primary Evaluation Period to Secondary Evaluation Period, Mean (SD) (Vadadustat, subjects did not switch, listed as Vadadustat): 0.039 (1.2286) g/dL
Change in Hb from Primary Evaluation Period to Secondary Evaluation Period, Mean (SD) [2]: -0.422 g/dL
Change in Hb from Primary Evaluation Period to Secondary Evaluation Period, Median [2]: -0.350 g/dL
Hb at Primary Evaluation Period (Average of Weeks 10 to 12), Mean (SD) [2]: 10.376 (0.3754) g/dL
Hb at Primary Evaluation Period (Average of Weeks 10 to 12), Median [2]: 10.433 g/dL
Hb at Secondary Evaluation Period (Average of Weeks 18 to 20), Mean (SD) [2]: 9.955 (1.0716) g/dL
Hb at Secondary Evaluation Period (Average of Weeks 18 to 20), Median [2]: 9.900 g/dL
Change in Hb from Primary Evaluation Period to Secondary Evaluation Period, Mean (SD) (Vadadustat, subjects switched from QD to TIW, listed as Vadadustat): −0.422 (1.1708) g/dL
proportion of subjects having Hb values within target range at Weeks 10 to 12 (vadadustat 300 mg group of the high epoetin alfa stratum): 8.3%
course of Hb versus baseline (vadadustat 300 mg, high epoetin alfa stratum): decrease from baseline in Hb up to Week 10, after which Hb began to return towards baseline
mean (SD) Hb at the PEP (Weeks 10 to 12) [3]: 9.78 (1.048) g/dL
mean (SD) changes from baseline in Hb at the PEP [3]: −0.35 (0.976) g/dL
proportion of subjects having Hb values within target range at the PEP (Weeks 10 to 12) [3]: 32.7%
